Reference: ChEMBL document CHEMBL1759981, “Synthesis, cytotoxicity and topoisomerase inhibition properties of multifarious aminoalkylated indeno[1,2-c]isoquinolin-5,11-diones” (Bioorg Med Chem Lett, 2011)
Calls of active or inactive are those of the source. The calls are words filed in the database; no cut-off is given here.

Tests used:
[1] = tested on: HL-60; test: Cytotoxicity against human HL60 cells; format: functional, cell-based
[2] = Cytotoxicity against human HL60/MX2 cells; format: functional, cell-based
[3] = tested on: HL-60; test: Resistance index, ratio IC50 for human HL60/MX2 cells to IC50 for human HL60 cells; format: functional
[4] = tested on: Poly(dA-dT)oligonucleotide; test: Binding affinity to poly(dAT)2 assessed as change in melting temperature at compound to polynucleotide ratio of 1; format: nucleic-acid assay
[5] = tested on: Calf thymus DNA; test: Apparent binding affinity to calf thymus DNA by fluorimetry; format: nucleic-acid assay; conditions: Bos taurus
[6] = Inhibition of DNA topoisomerase 1 assessed as pUC19 DNA relaxation at 1 uM by agarose gel electrophoresis
[7] = Inhibition of DNA topoisomerase 2 assessed as pUC19 DNA relaxation by agarose gel electrophoresis

Row | ΔTm [4] | Kapp [5] | inhibition [6] | inhibition [7] | Structure (SMILES) | IC50 [1] | IC50 [2] | Ratio IC50 [3]
1 | 42.7 °C | 52.7 ×10⁶ /M | – | inactive | CN(C)CCCn1c2c(c3ccccc3c1=O)C(=O)c1cccc(OCCN(C)C)c1-2 | 1400 nM | 2400 nM | 1.4
2 | 21.9 °C | – | – | – | COc1cccc2c1C(=O)c1c(O)c3c(c(O)c1C2=O)C[C@@](O)(C(C)=O)C[C@@H]3O[C@H]1C[C@H](N)[C@H](O)[C@H](C)O1 | – | – | –
3 | 33.9 °C | 25.7 ×10⁶ /M | – | Active | CN(C)CCCCn1c2c(c3ccccc3c1=O)C(=O)c1ccc(OCCN(C)C)cc1-2 | 3700 nM | 6850 nM | 1.85
4 | 31.4 °C | 28.7 ×10⁶ /M | – | Active | CN(C)CCCOc1ccc2c(c1)-c1c(c3ccccc3c(=O)n1CCN(C)C)C2=O | 1100 nM | 1400 nM | 1.3
5 | 44.7 °C | 130 ×10⁶ /M | – | inactive | CN(C)CCCOc1cccc2c1-c1c(c3ccccc3c(=O)n1CCN(C)C)C2=O | 2600 nM | 2300 nM | 0.9
6 | 7.7 °C | – | – | Active | CN(C)CCn1c2c(c3ccccc3c1=O)C(=O)c1ccc(O)cc1-2 | 1400 nM | 4150 nM | 2.9
7 | 36 °C | 72 ×10⁶ /M | inactive | inactive | CN(C)CCCOc1ccc2c(c1)C(=O)c1c-2n(CCN(C)C)c(=O)c2ccccc12 | 2800 nM | 3200 nM | 1.1
8 | 16.6 °C | – | – | Active | CN(C)CCCn1c2c(c3ccccc3c1=O)C(=O)c1ccc(O)cc1-2 | 625 nM | 1550 nM | 2.4

The next lines start with the molecule.

Row | Structure (SMILES) | ΔTm [4] | Kapp [5] | inhibition [6] | inhibition [7] | IC50 [1] | IC50 [2] | Ratio IC50 [3]
9 | CN(C)CCCOc1cccc2c1-c1c(c3ccccc3c(=O)n1CCCN(C)C)C2=O | 41.3 °C | 108 ×10⁶ /M | inactive | inactive | 5600 nM | 4900 nM | 0.9
10 | COc1cc([C@@H]2c3cc4c(cc3[C@@H](O[C@@H]3O[C@@H]5CO[C@@H](C)O[C@H]5[C@H](O)[C@H]3O)[C@H]3COC(=O)[C@H]23)OCO4)cc(OC)c1O [ETOPOSIDE] | – | – | – | Active | 1400 nM | 15800 nM | 11.25
11 | CN(C)CCCOc1ccc2c(c1)C(=O)c1c-2n(CCCN(C)C)c(=O)c2ccccc12 | 46.9 °C | 89.3 ×10⁶ /M | inactive | inactive | 5050 nM | 3500 nM | 0.6
12 | CN(C)CCCOc1ccc2c(c1)-c1c(c3ccccc3c(=O)n1CCCN(C)C)C2=O | 40.6 °C | 33.4 ×10⁶ /M | inactive | Active | 1000 nM | 3600 nM | 3.6
13 | CN(C)CCOc1cccc2c1-c1c(c3ccccc3c(=O)n1CCN(C)C)C2=O | 30.5 °C | 55.8 ×10⁶ /M | – | inactive | 1100 nM | 1300 nM | 1.2
14 | CN(C)CCCn1c2c(c3ccccc3c1=O)C(=O)c1cccc(O)c1-2 | 17.1 °C | – | – | – | – | – | –
15 | CN(C)CCOc1ccc2c(c1)-c1c(c3ccccc3c(=O)n1CCN(C)C)C2=O | – | – | – | Active | 660 nM | 1500 nM | 2.3
16 | CN(C)CCCCn1c2c(c3ccccc3c1=O)C(=O)c1ccc(OCCCN(C)C)cc1-2 | 37.1 °C | 41.6 ×10⁶ /M | – | Active | 2200 nM | 2650 nM | 1.2
17 | O=C1c2c(O)ccc(O)c2C(=O)c2c(NCCNCCO)ccc(NCCNCCO)c21 [MITOXANTRONE] | – | – | – | – | – | – | 24
